Measurements: US12715915B2, “Gout flare prevention methods using IL-1β blockers” (priority 2022, dated 2026)
“Also recorded” adds a separate entry of the source. Like-named read-outs stand apart in the source and are kept apart here.

Experiments:
[1] = test system: adult uncontrolled gout patients; assay: MIRROR-C: open-label trial of canakinumab prophylaxis to prevent gout flares when initiating pegloticase+MTX; assay type: in vivo, human
Description: 86. Pegloticase plus methotrexate (approved by FDA in July 2022) is effective at reducing signs/symptoms of uncontrolled gout. In the pivotal trial (MIRROR RCT) the most common adverse event was gout flares which occurred in 54% of patients at month 1 on combination pegloticase and methotrexate. The purpose of this study is to determine if canakinumab is effective for the prevention of gout flares in subjects scheduled to begin KRYSTEXXA® (KRY) (pegloticase) infusions in combination with methotrexate. The most common adverse event that occurs in patients being treated with KRY and methotrexate are gout flares which occurred in 54% of patients at month 1 in the MIRROR RCT. Herein we use canakinumab pretreatment (without corticosteroids, NSAIDs, or colchicine) to reduce the number of gout flares.
87 Canakinumab is the drug that is tested herein. It is currently approved by the FDA for the treatment of periodic fever syndromes and active systemic juvenile idiopathic arthritis (SJIA). However, Canakinumab is considered to be experimental in this study. Subjects scheduled (by their treating provider) to receive pegloticase (with methotrexate) receive a single 150 mg injection of subcutaneous canakinumab one week prior to the first scheduled pegloticase infusion. The combination of the drugs is experimental. As shown herein,
88. Subjects scheduled (by their treating provider) to receive pegloticase (with methotrexate) receive a single 150 mg injection of subcutaneous canakinumab one week prior to the first scheduled pegloticase infusion. At each infusion, subjects are assessed for gout flares. Canakinumab are provided by the study to subjects without charge. Pegloticase, methotrexate, and other medications are obtained through standard means (patient insurance, patient assistance, etc.) as ordered by treating provider. […] It is assumed that mobilization of gout crystals at the initiation of therapy results in gout flares through the IL-1 inflammasome pathway. A goal of prophylaxis is to reduce the number of flares with initiation. […]
89. […] On the day of KRYSTEXXA® administration (i.e., Day 0), the blood pressure, respiratory rate, temperature, and heart rate of patients are measured and patients receive a first administration of KRYSTEXXA® delivered as an intravenous (i.v.) infusion. Every two weeks thereafter during the study (i.e., Day 14, Day 28, Day 42, Day […], Day 98, Day 112, Day 126, Day 140, Day 154, Day 168; also called Week 2, Week 4, Week 6, Week 8, Week 10, Week 12, Week 14, Week 16, Week 18, Week 20, Week 22, Week 24) the blood pressure, respiratory rate, temperature, and heart rate of patients are measured and patients report any gout flares. […]

[2] = test system: gout patients initiating allopurinol; conditions: cited from earlier work; for risk of gout flares during allopurinol initiation: in vivo
[3] = biological target: IL-1 receptor antagonist (IL-1ra) (Homo sapiens, UniProt P18510); conditions: cited from earlier work
human IL1β = human IL1β (Homo sapiens, UniProt P01584); conditions: blocks interaction with IL-1 receptors; cited from earlier work
IL-1α = biological target: T1, IL-1α (Homo sapiens, UniProt P01583); conditions: cited from earlier work
T1 sequence (P01583 113-271): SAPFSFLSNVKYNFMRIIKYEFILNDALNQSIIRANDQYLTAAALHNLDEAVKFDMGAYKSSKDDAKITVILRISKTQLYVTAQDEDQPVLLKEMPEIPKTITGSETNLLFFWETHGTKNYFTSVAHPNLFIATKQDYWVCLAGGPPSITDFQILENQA

Sequence of IL-1 receptor antagonist (IL-1ra) (P18510 26-177): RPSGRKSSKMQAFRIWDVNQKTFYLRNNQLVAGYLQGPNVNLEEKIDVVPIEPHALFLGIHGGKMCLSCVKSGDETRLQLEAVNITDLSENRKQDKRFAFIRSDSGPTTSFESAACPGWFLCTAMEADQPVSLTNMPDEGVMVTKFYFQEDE

canakinumab
time to resolution of active gout flares after administration ([1]; canakinumab 150 mg s.c.): ≤ 48 h | treated patients in whom gout flares were prevented ([1]; canakinumab prophylaxis without corticosteroids, initiation of pegloticase with methotrexate): 100% | safety of canakinumab prophylaxis with pegloticase+MTX ([1]; single 150 mg dose, without CS): no new safety signals; also recorded: did not compromise efficacy or safety | new gout flares after canakinumab prophylaxis ([1]; single 150 mg s.c. dose 7 days before first pegloticase infusion, no CS, NSAIDs or colchicine, assessed every 2 wks for 6 mos): No new gout flares; also recorded: prevented gout flares in all patients | risk of gout flares during allopurinol initiation [2]: reduces the risk of flares | risk of gout flares during allopurinol initiation ([2]; listed as Canakinumab): can reduce subsequent flares | prophylaxis against flares compared to colchicine ([2]; single dose ≥50 mg, initiating allopurinol): superior prophylaxis | binding to IL-1 receptor antagonist (IL-1ra) [3]: does not bind | binding to human IL1β (human IL1β): binds to human IL1β and neutralizes its activity | binding to IL-1α (IL-1α): does not bind
